# Assay results reported in patent US7378406B2, “Use of antiprogestins for prophylaxis and treatment of hormone-dependent diseases” (Schering AG, priority 2000, dated 2008).
# Tests used:
# [1] = system: DMBA-induced mammary carcinoma of the rat; assay: DMBA-induced breast cancer model in rat (prevention experiment); assay type: in vivo, rat (female Sprague-Dawley); settings: 6 days/week, start 20 days after DMBA, end of experiment
# Protocol: Immature female Sprague-Dawley rats (49-51 days old; 10 animals/group) were used in this study. The carcinogen 7,12-dimethylbenz[a]anthracene (DMBA) was given as a single oral administration (10 mg). Treatment was started 20 days later as followed: 1) solvent control, 2) ovariectomy at treatment start, 3) tamoxifen, 1 mg/kg s.c., 4) antiprogestin (I), 3 mg/kg, s.c., 6 days/week. Rats were examined weekly for breast tumors by palpation. As a parameter for the prophylactic effect the tumor incidence (number of animals/group with tumors in %) was determined. For a further description and evaluation of DMBA and NMU prevention models, see R. G. Metha, European Journal of Cancer 36 (2000), pp. 1275-1282.
# MCF7 breast cancer cells = assay: MCF7 human xenograft (therapy experiment); assay type: in vivo, human xenograft in Fox Chase scid mice; settings: 10 mg/kg s.c.; scid mice with estradiol pellets
# Protocol: (§1) Female Fox Chase scid mice (M&B) were supplemented with estradiol pellets (Innovative Research of America). MCF7 breast cancer cells, obtained from cell culture and suspended in matrigel, were implanted s.c. in the inguinal region of the mice. Treatment was started when the tumors were approximately 25 mm^2 in size. Treatment was continued until progression of the tumors. Experimental groups were: 1) control (vehicle), 2) ovariectomy, 3) antiprogestin (I), 10 mg/kg s.c. Tumor area was determined by caliper measurements. The Kruskal Wallis test was used for statistical analysis of intergroup differences of mean values.
# [2] = Bioavailability (general statement); assay type: in vivo; settings: oral administration
# [3] = Further endocrine side effects (general statement)
# [4] = system: NMU-induced mammary carcinoma of the rat; assay: NMU-induced breast cancer model in rat (prevention experiment); assay type: in vivo, rat (female Sprague-Dawley); settings: 3 mg/kg s.c., 6 days/week, start 10 days after NMU; end of experiment, after 27 weeks
# Protocol: Tumors were induced by a single intravenous injection of NMU (nitrosomethylurea, 50 mg/kg) in female Sprague-Dawley rats (obtained from Tierzucht Schonwalde, age 50-55 days). Treatment was started 10 days later as followed: 1) solvent control, 2) ovariectomy at treatment start, 3) tamoxifen, 3 mg/kg s.c., 4) antiprogestin (I), 3 mg/kg, s.c., 5) letrozole, 3 mg/kg s.c., 6) raloxifen, 3 mg/kg s.c., 6 days/week. Rats were examined weekly for breast tumors by palpation. As a parameter for the prophylactic effect the tumor incidence (number of animals/group with tumors in %) was determined. For a further description and evaluation of DMBA and NMU prevention models, see R. G. Metha, European Journal of Cancer 36 (2000), pp. 1275-1282.
# [5] = system: DMBA-induced mammary carcinoma of the rat; assay: DMBA-induced breast cancer model in rat (therapy experiment/dose-response study); assay type: in vivo, rat (female Sprague-Dawley)
# Protocol: Immature female Sprague-Dawley rats (49-51 days old; 10 animals/group) were used in this study. Mammary tumors were induced by a single oral administration of 10 mg 7,12-dimethylbenz[a]anthracene (DMBA, Serva/Heidelberg). Rats with at least one established tumor with a size of more than 150 mm^2 were treated for 4 weeks by: 1) solvent control, 2) ovariectomy at treatment start, 3) antiprogestin (I), 0.5 mg/kg s.c., 4) antiprogestin (I), 2 mg/kg s.c., 5) antiprogestin (I), 5 mg/kg s.c., 6) antiprogestin (I), 10 mg/kg s.c., and 7) onapristone, 5 mg/kg, s.c., daily. As a parameter for growth inhibition the change of tumor area (in % with respect to initial tumor size) determined by weekly caliper measurements was used. For statistical analysis of intergroup differences of mean values the Kruskal-Wallis-test was used.
# [6] = system: NMU-induced mammary carcinoma of the rat; assay: NMU-induced breast cancer model in rat (therapy experiment); assay type: in vivo, rat (female Sprague-Dawley); settings: 4 weeks
# Protocol: Tumors were induced by a single intravenous injection of NMU (nitrosomethylurea, 50 mg/kg) in female Sprague-Dawley rats (obtained from Tierzucht Schönwalde, age 50-55 days). Starting 10 days later, rats with at least one established tumor were treated for 4 weeks by: 1) solvent control, 2) ovariectomy at treatment start, 3) antiprogestin (I), 1.0 mg/kg/day, 4) antiprogestin (I), 0.5 mg/kg/day and 5) onapristone, 5 mg/kg/day. As a parameter for growth inhibition the change of tumor area (in % of initial tumor size) determined by weekly caliper measurements was used. For statistical analysis of intergroup differences of mean values the Kruskal-Wallis-test was used.
# T47D breast cancer cells = assay: T47D human xenograft (therapy experiment); assay type: in vivo, human xenograft in Fox Chase scid mice; settings: 10 mg/kg s.c.; scid mice with estradiol pellets
# Protocol: as §1, with “T47D” for “MCF7”, “s.c.Tumor” for “s.c. Tumor”
smiles,measurement,setting,value
"CC/C(=C(\c1ccccc1)c1ccc(OCCN(C)C)cc1)c1ccccc1 [tamoxifen, reference compound]",tumor incidence (number of animals/group with tumors in %),[1]; 1 mg/kg s.c.,60%
"CC(=O)c1ccc([C@H]2C[C@@]3(C)[C@@H](CC[C@@]3(O)C(F)(F)C(F)(F)F)[C@@H]3CCC4=CC(=O)CCC4=C32)cc1 [antiprogestin (I), 11β-(4-acetylphenyl)-17β-hydroxy-17α-(1,1,2,2,2-pentafluoroethyl)-estra-4,9-dien-3-one]",tumor growth (tumor area),MCF7 breast cancer cells,"inhibition of tumor growth, almost comparable to the effect of conventional estrogen deprivation therapy (ovariectomy)"
same,bioavailability,[2],high
same,"further endocrine side effects, e.g. androgen, estrogen or antiglucocorticoid activity",[3],"only very weak, if present at all"
same,tumor incidence (number of animals/group with tumors in %),[4],10%
same,tumor incidence (number of animals/group with tumors in %),"[1]; 3 mg/kg s.c., after 22 weeks",10%
same,tumor growth (change of tumor area) compared with the control,"[5]; 0.5 mg/kg s.c. daily, 4 weeks",did not significantly prevent the tumor from growing
same,rats with complete tumor regression,"[5]; 2 mg/kg s.c. daily, 4 weeks",50%
same,"tumor growth (change of tumor area), dose-response","[5]; 2 mg/kg s.c. daily, 4 weeks",maximal growth inhibition
same,"tumor growth (change of tumor area), dose-response","[5]; 10 mg/kg s.c. daily, 4 weeks (highest dose)",comparable to that of 2 mg/kg
same,tumor growth (change of tumor area) compared with the control,"[5]; doses of or above 2 mg/kg s.c. daily, 4 weeks",significant inhibition of tumor growth
same,tumor growth (change of tumor area) compared with the control,[6]; 0.5 mg/kg/day,significant inhibition of tumor growth
same,tumor growth (change of tumor area) compared with the control,[6]; 1.0 mg/kg/day,significant inhibition of tumor growth
same,tumor growth (tumor area),T47D breast cancer cells,"inhibition of tumor growth, almost comparable to the effect of conventional estrogen deprivation therapy (ovariectomy)"
"CN(C)c1ccc([C@H]2C[C@]3(C)[C@@H](CC[C@]3(O)CCCO)[C@@H]3CCC4=CC(=O)CCC4=C32)cc1 [Onapristone, onapristone, reference compound]",tumor growth inhibition relative to antiprogestin (I),"[5]; 5 mg/kg s.c. daily, 4 weeks",distinctly less effective than antiprogestin (I) at comparable doses
same,tumor growth inhibition relative to antiprogestin (I) at 0.5 mg/kg,[6]; 5 mg/kg/day,distinctly less effective than antiprogestin (I)
